Data reported in ChEMBL document CHEMBL1201862, “PubChem BioAssay data set” (2004).
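Five concentrations, 48 hours, 96-well plates. Here, GI50 denotes the concentration required for 50% inhibition of growth.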 Calls of active or inactive are those of the source. Cut-off read from the data, not from the text of the source: active = GI50 up to about 1.1 µM and inactive = higher.

Assays:
Experiment in all cases: NCI-60 cell line screen, 48 h
SNB-78 = tested on: SNB-78
OVCAR-8 = tested on: OVCAR-8
U-251 = tested on: U-251
NCI-H226 = tested on: NCI-H226
RXF 393 = tested on: RXF 393
LXFL 529 = tested on: LXFL 529
UACC-257 = tested on: UACC-257
NCI-H522 = tested on: NCI-H522
SK-MEL-28 = tested on: SK-MEL-28
M19-MEL = tested on: M19-MEL
HOP-62 = tested on: HOP-62
KM12 = tested on: KM12
SK-MEL-2 = tested on: SK-MEL-2
M14 = tested on: M14
SR = tested on: SR
HCT-116 = tested on: HCT-116
ACHN = tested on: ACHN
Malme-3M = tested on: Malme-3M
HOP-92 = tested on: HOP-92
XF498 = tested on: XF498
COLO 205 = tested on: COLO 205
HCC 2998 = tested on: HCC 2998
CCRF-CEM = tested on: CCRF-CEM
A549 = tested on: A549
NCI-H23 = tested on: NCI-H23
OVCAR-3 = tested on: OVCAR-3
K562 = tested on: K562
SF-295 = tested on: SF-295
HCT-15 = tested on: HCT-15
SF-268 = tested on: SF-268
DMS-273 = tested on: DMS-273
EKVX = tested on: EKVX
HT-29 = tested on: HT-29
SK-OV-3 = tested on: SK-OV-3
DLD-1 = tested on: DLD-1
786-0 = tested on: 786-0
KM-20L2 = tested on: KM-20L2
SW-620 = tested on: SW-620
HL-60 = tested on: HL-60
LOX IMVI = tested on: LOX IMVI
OVCAR-4 = tested on: OVCAR-4
UO-31 = tested on: UO-31
SK-MEL-5 = tested on: SK-MEL-5
IGROV-1 = tested on: IGROV-1
TK-10 = tested on: TK-10
SNB-19 = tested on: SNB-19
MOLT-4 = tested on: MOLT-4
SN12C = tested on: SN12C
NCI-H460 = tested on: NCI-H460
SF-539 = tested on: SF-539
UACC-62 = tested on: UACC-62
SNB-75 = tested on: SNB-75

Cc1ccc(-n2c(C)nc3c2C(=O)c2ccccc2C3=O)cc1
GI50 (SNB-78): > 100 µM (inactive) | GI50 (OVCAR-8): 17.4 µM (inactive) | GI50 (U-251): 9.46 µM (inactive) | GI50 (NCI-H226): > 100 µM (inactive) | GI50 (RXF 393): > 100 µM (inactive) | GI50 (LXFL 529): 9.84 µM (inactive) | GI50 (UACC-257): 19.1 µM (inactive) | GI50 (NCI-H522): 34.7 µM (inactive) | GI50 (SK-MEL-28): 52.6 µM (inactive) | GI50 (M19-MEL): 12 µM (inactive) | GI50 (HOP-62): 41.2 µM (inactive) | GI50 (KM12): > 100 µM (inactive) | GI50 (SK-MEL-2): 40.7 µM (inactive) | GI50 (M14): 58.2 µM (inactive) | GI50 (SR): > 100 µM (inactive) | GI50 (HCT-116): 5.73 µM (inactive) | GI50 (ACHN): 27.9 µM (inactive) | GI50 (Malme-3M): 20.4 µM (inactive) | GI50 (HOP-92): 49.4 µM (inactive) | GI50 (XF498): 50.5 µM (inactive) | GI50 (COLO 205): 14.6 µM (inactive) | GI50 (HCC 2998): 57.5 µM (inactive) | GI50 (CCRF-CEM): 11.1 µM (inactive) | GI50 (A549): 28.9 µM (inactive) | GI50 (NCI-H23): 25.9 µM (inactive) | GI50 (OVCAR-3): 21.8 µM (inactive) | GI50 (K562): 5.86 µM (inactive) | GI50 (SF-295): 25 µM (inactive) | GI50 (HCT-15): 7.53 µM | GI50 (SF-268): 7.41 µM (inactive) | GI50 (DMS-273): 9.86 µM (inactive) | GI50 (EKVX): > 100 µM (inactive) | GI50 (HT-29): 11.9 µM (inactive) | GI50 (SK-OV-3): > 100 µM (inactive) | GI50 (DLD-1): 9.33 µM (inactive) | GI50 (786-0): 18.5 µM (inactive) | GI50 (KM-20L2): 18.3 µM (inactive) | GI50 (SW-620): 33.5 µM (inactive) | GI50 (HL-60): 9.14 µM (inactive) | GI50 (LOX IMVI): 7.98 µM (inactive) | GI50 (OVCAR-4): 82.8 µM (inactive) | GI50 (UO-31): 66.7 µM (inactive) | GI50 (SK-MEL-5): 15.2 µM (inactive) | GI50 (IGROV-1): 27.9 µM (inactive) | GI50 (TK-10): > 100 µM (inactive) | GI50 (SNB-19): 71.9 µM (inactive) | GI50 (MOLT-4): > 100 µM (inactive) | GI50 (SN12C): 28.4 µM (inactive) | GI50 (NCI-H460): 4.44 µM (inactive) | GI50 (SF-539): 10.4 µM (inactive) | GI50 (UACC-62): 8.57 µM (inactive) | GI50 (SNB-75): 34.4 µM (inactive)
